Results reported in EP4140481A1, “PROTEIN-OLIGOMER BINDING AGENTS AND THERAPEUTIC USES THEREOF” (Galyan Bio, Inc., priority 2021, dated 2023).
pKd: −log10 of the molar value.

Tests used:
mHTT = target: T1, mHTT (Homo sapiens, UniProt P42858); test: mHTT levels in striatal cells (immunocytochemistry); assay type: cell-based, mouse; details: for remaining activity at 10 µM / mHTT after treatment / Nuclear mHTT after treatment: 3 hours heat shock, 48 hours treatment; for remaining activity at 10 µM / mHTT after treatment: percentage in comparison to untreated STHdh 111/111, 3B5H10 antibody, 10 µM; for remaining activity at 10 µM: read-out: mHTT after treatment
T1 construct: host or cells: ST HDH Q111/111 mouse striatal cell line (knock-in locus)
Procedure: (§1) Staining - Cells were permeabilized with 0.3% Triton X-100 in 4 °C PBS (pH 7.4 from ThermoFisher) for 10 minutes. Then the cells were washed two times with 4 °C PBS. Subsequently, cells are blocked with 3% NGS (normal goat serum from Thermo Fisher) in 4 ° C PBS for 1 hour. Cells were incubated with primary antibodies in blocking buffer (PBS, 3% NGS, 0.02% NaN3) over night at 4 °C. Primary antibodies were mouse antipolyglutamine monoclonal antibody 3B5H10 (Sigma-Aldrich) at 1:250 dilution and Guinea Pig anti-MAP2 polyclonal antibody (Synaptic Systems) at 1:500 dilution. 3B5H10 binds to diffuse mHTT. Diffuse mHTT is a monomeric and small oligomeric mHTT. Diffuse mHTT is correlated to pathological parameters in Huntington's disease. Compounds that bind the mHTT will reduce the levels of diffuse mHTT detected.
Cells were washed 2 times with 4 °C PBS, and then incubated with secondary antibodies at 1:2000 dilution in blocking buffer for 1hour at room temperature. […] Cells were washed 2 times with 4 °C PBS, and then the nuclei were counterstain with DAPI (ThermoFisher) for 10 min at room temperature in the dark. Cells were washed 2 times with 4 °C PBS, and then 4 °C PBS was added to cells and then images were acquired. […] Table 11: Antibodies Used in Immunocytochemistry Studies
Fluorescence Imaging - Imaging sessions were performed on a confocal microscope system (Carl Zeiss Microscopy) equipped with a dual spinning disk unit (Yokogawa). All components of the imaging system were controlled via the ZEN 2 software suite (Carl Zeiss Microscopy). The laser lines used were 405 nm, 488 nm and 639 nm to excite DAPI or the respective fluorophores. […] Nested t test was performed to calculate the significance amongst repeated measurements using GraphPad Prism software.
as §1, with “For LC3 staining primary antibodies were mouse anti-LC3 mab (5F10) (nanoTools) at 1:500 dilution” for “3B5H10 binds to diffuse mHTT. Diffuse mHTT is a monomeric”, “Guinea Pig anti-MAP2 polyclonal antibody (Synaptic Systems) at 1:500 dilution.” for “small oligomeric mHTT. Diffuse mHTT is correlated to pathological parameters in Huntington's disease. Compounds that bind the mHTT will reduce the levels of diffuse mHTT detected.”
Cells were washed 2 times with 4 °C PBS, and then incubated with secondary antibodies at 1:2000 dilution in blocking buffer for 1hour at room temperature. […] Cells were washed 2 times with 4 °C PBS, and then the nuclei were counterstain with DAPI (ThermoFisher) for 10 min at room temperature in the dark. Cells were washed 2 times with 4 °C PBS, and then 4 °C PBS was added to cells and then images were acquired.
EC 50 value was determined with non-linear regression.

Exon1 Q46 = Exon1 Q46 (Homo sapiens, UniProt P42858, INS38QQQQQQQQQQQQQQQQQQQQQQQQQ); test: Circular dichroism study; assay type: binding; details: Exon1 Q46
Procedure: Protein samples were diluted with buffer to 7.5 µM prior to Circular Dichroism (CD) measurements. Measurements were conducted at room temperature.
Four spectra at each measurement were taken every 1 nm from 200 to 260 nm, scanning at 50 nm/min with an averaging time of 1 sec. Spectra were obtained from samples in 20 mM phosphate, pH 7.4. Ten scans were averaged for each sample spectrum
Single-wavelength readings at 222 nm were obtained. After subtraction of the Trx contribution, the α-helical content of Httex1 was estimated from its mean residue ellipticity (MREHttex1) at 222 nm. This calculation was conducted as described by Bravo-Arredondo (Bravo-Arredondo, J.M. et al., J Biol Chem. 2018 Dec 21;293(51):19613-19623).
MRE Exon-1 Q16 and Q46 (Mean Residue Ellipticity) was measured every 1 sec for 300 sec; the 301 readings for each sample were averaged and MRE Trx subtracted. The number of amino acids in each sample to experience a change in helicity was estimated using a previously developed helix-coil transition model, which gave the change in fraction of helicity (ΔfHelix) by the following equation: fHelix = (MREHttex1 −MRECoil)/(MREHelix −MRECoil) [formula] where MRE Exon1 Q26 or Q46 (MREHttex1 in the formula) describes the helix-coil transition, obtained from the difference between MRE Eon1 Q26 or Q46 at 222 nm of the fusion protein at the given temperature (in our case 37 °C) and the product of MRE Trx at 222 nm at the same temperature and the fraction of residues comprised by Trx in that particular construct, and MRECoil = 2220−53T,MREHelix =; (−44,000+250T)(1−(3)/(Nr)) [formula] given T as the temperature in °C and Nr as the number of residues.
In order to calculate an equilibrium of the two states model, percent α-helicity was calculated using the relation of MREHttex1 = 0 and -34700 (deg cm^2 dmol^-1) for 0% and 100% helicity, respectively. Table 14: Comparison between Kd, reversal of conformational changes of Exon1 Q46 and reduction of mHTT in comparison to untreated striatal neurons
The CD measurements protocol for Compound 101 was the same as outlined above except that from 206 nm - 210 nm and 220 nm - 224 nm, the step size was 0.2 nm, and the bandwidth was 1nm.

T1 sequence (P42858 with tags, fused parts or gaps with the stated changes): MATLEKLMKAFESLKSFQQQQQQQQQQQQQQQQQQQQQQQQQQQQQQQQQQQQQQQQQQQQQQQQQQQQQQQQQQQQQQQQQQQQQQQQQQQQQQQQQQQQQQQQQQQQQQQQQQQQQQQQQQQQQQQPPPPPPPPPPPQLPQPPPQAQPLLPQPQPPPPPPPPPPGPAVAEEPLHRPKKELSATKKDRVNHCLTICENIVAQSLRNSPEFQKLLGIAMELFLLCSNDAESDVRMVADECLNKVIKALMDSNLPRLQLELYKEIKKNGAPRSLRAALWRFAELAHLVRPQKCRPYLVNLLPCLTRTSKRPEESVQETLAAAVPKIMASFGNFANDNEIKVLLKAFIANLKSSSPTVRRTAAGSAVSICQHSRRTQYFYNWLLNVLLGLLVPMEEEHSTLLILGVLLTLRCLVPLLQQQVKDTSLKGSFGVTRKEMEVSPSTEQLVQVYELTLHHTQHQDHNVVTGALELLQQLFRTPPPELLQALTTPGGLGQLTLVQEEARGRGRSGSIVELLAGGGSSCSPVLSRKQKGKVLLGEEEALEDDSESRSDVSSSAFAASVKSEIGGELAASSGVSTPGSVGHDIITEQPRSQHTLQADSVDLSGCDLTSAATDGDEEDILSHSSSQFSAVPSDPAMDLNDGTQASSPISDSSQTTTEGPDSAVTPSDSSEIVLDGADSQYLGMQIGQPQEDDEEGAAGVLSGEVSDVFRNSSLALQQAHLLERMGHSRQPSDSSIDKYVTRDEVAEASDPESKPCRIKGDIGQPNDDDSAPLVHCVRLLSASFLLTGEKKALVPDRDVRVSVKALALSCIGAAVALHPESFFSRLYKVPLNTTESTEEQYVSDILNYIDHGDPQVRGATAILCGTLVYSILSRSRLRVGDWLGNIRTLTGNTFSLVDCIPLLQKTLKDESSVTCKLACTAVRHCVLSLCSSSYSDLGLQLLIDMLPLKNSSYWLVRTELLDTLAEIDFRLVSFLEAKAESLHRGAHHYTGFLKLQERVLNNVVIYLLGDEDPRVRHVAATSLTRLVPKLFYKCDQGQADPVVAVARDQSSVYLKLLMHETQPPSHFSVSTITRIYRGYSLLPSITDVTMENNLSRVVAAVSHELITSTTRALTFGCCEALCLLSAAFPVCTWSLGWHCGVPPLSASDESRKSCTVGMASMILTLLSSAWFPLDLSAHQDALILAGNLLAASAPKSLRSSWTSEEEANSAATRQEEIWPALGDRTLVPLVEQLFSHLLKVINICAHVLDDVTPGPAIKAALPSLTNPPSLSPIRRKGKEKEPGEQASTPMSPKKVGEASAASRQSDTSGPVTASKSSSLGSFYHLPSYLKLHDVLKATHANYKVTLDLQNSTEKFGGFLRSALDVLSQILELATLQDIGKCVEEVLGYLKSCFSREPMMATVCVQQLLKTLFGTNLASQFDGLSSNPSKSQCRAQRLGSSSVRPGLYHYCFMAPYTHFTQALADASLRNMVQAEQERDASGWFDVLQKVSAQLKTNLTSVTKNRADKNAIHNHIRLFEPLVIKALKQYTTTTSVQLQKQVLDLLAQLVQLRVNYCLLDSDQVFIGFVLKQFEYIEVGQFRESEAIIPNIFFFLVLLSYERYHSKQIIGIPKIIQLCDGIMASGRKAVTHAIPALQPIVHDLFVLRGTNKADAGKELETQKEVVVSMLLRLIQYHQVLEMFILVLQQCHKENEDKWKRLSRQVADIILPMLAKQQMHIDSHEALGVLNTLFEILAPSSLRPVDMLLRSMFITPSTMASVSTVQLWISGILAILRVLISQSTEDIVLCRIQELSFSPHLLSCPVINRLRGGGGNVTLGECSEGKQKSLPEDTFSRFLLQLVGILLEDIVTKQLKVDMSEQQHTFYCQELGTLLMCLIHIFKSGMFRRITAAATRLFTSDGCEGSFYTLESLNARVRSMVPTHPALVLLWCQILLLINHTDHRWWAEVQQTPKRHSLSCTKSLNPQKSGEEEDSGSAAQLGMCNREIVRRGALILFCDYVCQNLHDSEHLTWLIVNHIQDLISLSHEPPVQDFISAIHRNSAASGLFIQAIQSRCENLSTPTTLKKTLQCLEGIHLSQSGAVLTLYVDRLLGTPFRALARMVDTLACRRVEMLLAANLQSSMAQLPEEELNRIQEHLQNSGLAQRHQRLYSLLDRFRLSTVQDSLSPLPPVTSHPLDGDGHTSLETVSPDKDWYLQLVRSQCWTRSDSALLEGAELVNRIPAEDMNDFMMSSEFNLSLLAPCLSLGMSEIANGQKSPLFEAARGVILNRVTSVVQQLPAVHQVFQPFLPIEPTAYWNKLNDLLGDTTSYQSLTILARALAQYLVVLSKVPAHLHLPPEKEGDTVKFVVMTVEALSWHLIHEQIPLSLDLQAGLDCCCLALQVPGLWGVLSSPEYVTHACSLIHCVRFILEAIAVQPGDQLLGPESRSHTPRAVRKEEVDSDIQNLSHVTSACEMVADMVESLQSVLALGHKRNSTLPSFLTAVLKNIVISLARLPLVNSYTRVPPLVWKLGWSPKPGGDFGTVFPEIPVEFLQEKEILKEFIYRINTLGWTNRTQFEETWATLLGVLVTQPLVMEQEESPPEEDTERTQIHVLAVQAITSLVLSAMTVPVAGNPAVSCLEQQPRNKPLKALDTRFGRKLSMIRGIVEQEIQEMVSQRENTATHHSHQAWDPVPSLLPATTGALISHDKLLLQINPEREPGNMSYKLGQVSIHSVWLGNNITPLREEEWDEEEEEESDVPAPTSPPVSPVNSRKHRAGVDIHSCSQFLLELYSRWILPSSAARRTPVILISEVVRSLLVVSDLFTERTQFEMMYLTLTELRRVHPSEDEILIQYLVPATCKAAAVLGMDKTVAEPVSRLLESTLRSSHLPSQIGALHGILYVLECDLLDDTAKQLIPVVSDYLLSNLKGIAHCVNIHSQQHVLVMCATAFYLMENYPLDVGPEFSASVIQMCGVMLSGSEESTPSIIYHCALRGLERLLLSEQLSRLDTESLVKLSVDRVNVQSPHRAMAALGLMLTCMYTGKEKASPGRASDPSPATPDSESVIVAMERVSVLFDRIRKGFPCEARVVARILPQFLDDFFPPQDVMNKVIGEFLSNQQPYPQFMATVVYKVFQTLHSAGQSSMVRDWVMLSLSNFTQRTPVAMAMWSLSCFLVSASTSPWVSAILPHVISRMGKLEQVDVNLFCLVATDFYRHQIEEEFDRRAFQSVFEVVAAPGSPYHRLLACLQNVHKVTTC
Sequence of Exon1 Q46 (P42858 with tags, fused parts or gaps with the stated changes): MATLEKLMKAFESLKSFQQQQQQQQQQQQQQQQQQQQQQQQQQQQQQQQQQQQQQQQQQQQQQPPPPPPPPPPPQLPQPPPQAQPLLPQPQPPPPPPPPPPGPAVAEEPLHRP

| remaining activity at 10 µM (mHTT; STHdh 111/111) [%] | SMILES | also measured |
| --- | --- | --- |
| 30 | CCc1c(C)[nH]c2ccc(C(=O)NCCN(C)C)cc12 [Compound 1] | – |
| 40 | CN1CCN(CCNC(=O)c2ccc3[nH]c4c(c3c2)CCC4)CC1 [Compound 10] | – |
| 40 | CCc1[nH]c2ccc(C(=O)NCCN3CCCC3)cc2c1C [Compound 11] | – |
| 41 | O=C(NCCN1CCCC1)c1ccc2[nH]c3c(c2c1)CCCC3 [Compound 13] | – |
| 42 | CCc1c(C)[nH]c2ccc(C(=O)NCCN3CCN(C)CC3)cc12 [Compound 15] | – |
| 45 | O=C(NCCN1CCC1)c1ccc2[nH]c3c(c2c1)CCCC3 [Compound 20] | mHTT reduction with MG132 in comparison to without MG132 (mHTT; STHdh 111/111 striatal cells): less |
| 47 | CCc1[nH]c2ccc(C(=O)NCCN3CCCCC3)cc2c1C [Compound 23] | – |
| 51 | CCc1[nH]c2ccc(C(=O)NCCN3CCOCC3)cc2c1C [Compound 30] | – |
| 53 | CCc1c(C)[nH]c2ccc(C(=O)NCCN3CCOCC3)cc12 [Compound 32] | – |
| 55 | CCc1c(C)[nH]c2ccc(C(=O)NCCN3CCC3)cc12 [Compound 33] | – |
| 56 | CN1CCN(CCNC(=O)c2ccc3[nH]c4c(c3c2)CCCC4)CC1 [Compound 36] | – |
| 65 | O=C(NCCN1CCC1)c1ccc2[nH]c3c(c2c1)CCC3 [Compound 42] | – |

Second part, the compound before the results:

| SMILES | remaining activity at 10 µM (mHTT; STHdh 111/111) [%] | also measured |
| --- | --- | --- |
| Cc1[nH]c2ccc(C(=O)NCCN3CCOCC3)cc2c1C [Compound 2, 2,3-dimethyl-N-(2-morpholinoethyl)-1H-indole-5-carboxamide] | 32 | – |
| CN(C)CCNC(=O)c1ccc2[nH]c3c(c2c1)CCCC3 [Compound 3] | 33 | – |
| CN(C)CCNC(=O)c1ccc2[nH]c3c(c2c1)CCC3 [Compound 5] | 36 | – |
| O=C(NCCN1CCOCC1)c1ccc2[nH]c3c(c2c1)CCC3 [Compound 8] | 38 | – |
| O=C(NCCN1CCOCC1)c1ccc2[nH]c3c(c2c1)CCCC3 [Compound 12] | 40 | – |
| O=C(NCCN1CCCCC1)c1ccc2[nH]c3c(c2c1)CCCC3 [Compound 16] | 43 | – |
| Cc1[nH]c2ccc(C(=O)NCCN3CCC3)cc2c1C [Compound 17, N-(2-(Azetidin-1-yl)ethyl)-2,3-dimethyl-1H-indole-5-carboxamide] | 44 | – |
| CCN(CC)CCNC(=O)c1ccc2c(c1)c(C)c(C)n2C [Compound 19, N-(2-(Diethylamino)ethyl)-1,2,3-dimethyl-1H-indole-5-carboxamide] | – | mHTT after treatment (mHTT; STHdh 111/111): 45% |
| CCN(CC)CCNC(=O)c1ccc2[nH]c(C)c(C)c2c1 [Compound 21, N-(2-(Diethylamino)ethyl)-2,3-dimethyl-1H-indole-5-carboxamide] | 46 | – |
| Cc1c(C)n(C)c2ccc(C(=O)NCCN3CCN(C)C(C)C3)cc12 (centres unmarked) [Compound 25, N-(2-(3,4-Dimethylpiperazin-1-yl)ethyl)-1,2,3-trimethyl-1H-indole-5-carboxamide] | 48 | – |
| CCN(CC)CCNC(=O)c1ccc2[nH]c3c(c2c1)CCC3 [Compound 27] | 50 | – |
| Cc1[nH]c2ccc(C(=O)NCCN3CCCC3)cc2c1C [Compound 29, 2,3-Dimethyl-N-(2-(pyrrolidin-1-yl)ethyl)-1H-indole-5-carboxamide] | 51 | – |
| Cc1c(C)n(C)c2ccc(C(=O)NCCN3CCCCC3)cc12 [Compound 31, 1,2,3-Trimethyl-N-(2-(piperidin-1-yl)ethyl)-1H-indole-5-carboxamide] | 52 | – |
| CCc1[nH]c2ccc(C(=O)NCCN(C)C)cc2c1C [Compound 37] | 56 | – |
| CCc1[nH]c2ccc(C(=O)NCCN(CC)CC)cc2c1C [Compound 38] | 57 | – |
| Cc1c(C)n(C)c2ccc(C(=O)NCCN(C)C)cc12 [Compound 41, N-(2-(Dimethylamino)ethyl)-1,2,3-trimethyl-1H-indole-5-carboxamide] | 65 | – |
| CC(C)N(CCNC(=O)c1ccc2[nH]ccc2c1)C(C)C [Compound 43] | 65 | – |
| Cc1c(C)n(C)c2ccc(C(=O)NCCN3CCC3)cc12 [Compound 44, N-(2-(Azetidin-1-yl)ethyl)-1,2,3-dimethyl-1H-indole-5-carboxamide] | – | mHTT after treatment (mHTT; STHdh 111/111): 66% |
| Cc1c(C)n(C)c2ccc(C(=O)NCCN3CCCC3)cc12 [Compound 46, 1,2,3-Trimethyl-N-(2-(pyrrolidin-1-yl)ethyl)-1H-indole-5-carboxamide] | 66 | – |
| Cc1[nH]c2ccc(C(=O)NCCN3CCCCC3)cc2c1C [Compound 47, 2,3-Dimethyl-N-(2-(piperidin-1-yl)ethyl)-1H-indole-5-carboxamide] | 66 | – |
| Cc1c(C)n(C)c2ccc(C(=O)NCCN3CCCCC3C)cc12 (centres unmarked) [Compound 48] | 68 | – |
| Cc1[nH]c2ccc(C(=O)NC3CCC(N(C)C)CC3)cc2c1C (centres unmarked) [Compound 101, N-(4-(dimethylamino)cyclohexyl)-2,3-dimethyl-1H-indole-5-carboxamide] | 38 | mHTT after 3 h heat shock and following 48 hours of compound treatment in comparison to untreated STHdh 111/111 (mHTT; STHdh 111/111): 38%; pKd (Exon1 Q46): 7.15; Fraction Helix fH (Exon1 Q46; conc. Compound 0.01 µM): 20.5%; Fraction Helix fH (Exon1 Q46; conc. Compound 0.059 µM): 20.1%; Fraction Helix fH (Exon1 Q46; conc. Compound 0.158 µM): 19.9%; Fraction Helix fH (Exon1 Q46; conc. Compound 0.647 µM): 19.1%; Fraction Helix fH (Exon1 Q46; conc. Compound 1.62 µM): 19.0%; Fraction Helix fH (Exon1 Q46; conc. Compound 4.04 µM): 18.5%; Fraction Helix fH (Exon1 Q46; conc. Compound 13.68 µM): 18.7%; Fraction Helix fH (Exon1 Q46; conc. Compound 37.77 µM): 18.2% |
| Cc1[nH]c2ccc(S(=O)(=O)NCCN3CCOCC3)cc2c1C [Compound 127] | – | Nuclear mHTT after treatment (mHTT; STHdh 111/111): 23.9% |
| Cc1[nH]c2ccc(S(=O)(=O)NCCN3CCCCC3)cc2c1C [Compound 128] | – | Nuclear mHTT after treatment (mHTT; STHdh 111/111): 79.9% |
